Results taken from patent US12331022B2, “Spiropiperidine allosteric modulators of nicotinic acetylcholine receptors” (Merck Sharp & Dohme LLC, priority 2019, dated 2025).
pEC50: −log10 of the molar value. Where two headings read alike, the source gives them in different places.

Target: T1, human α7 nAChR (Homo sapiens, UniProt P36544)
T1 construct: host or cells: HEK
Assay: Automated patch-clamp electrophysiology functional assay (Assay A)
Type: cell-based
Conditions: HEK cell line stably expressing human RIC-3 and human α7, IonFlux HT whole-cell population patch, with or without 40 μM acetylcholine
Method: The α7 nAChR positive allosteric modulator (PAM) activity of the present compounds may be tested using assays known in the art. The α7 nAChR PAMs described herein have activities in an automated patch-clamp electrophysiology functional assay as described in the examples. The assay was performed using the IonFlux HT in a whole-cell, population patch configuration. See Golden et al. Assay Drug Dev. Technol. (2011) 9:608-619. The compounds were assessed for their ability to modulate the function of the human α7 nAChR stably expressed in a HEK cell line both in the presence, and in the absence of the natural α7 agonist acetylcholine. By performing a series of such measurements at different concentrations, the effective concentration of the α7 nAChR PAMs (EC50) was determined. See Spencer et al. Assay Drug Dev. Technol. (2012) 10:313-324.
Direct activation of α7 (agonism), and potentiation of acetylcholine-evoked α7 currents was determined as follows:
Automated patch-clamp electrophysiology was performed using the IonFlux HT (Fluxion Biosciences Inc., San Francisco, CA) in the whole-cell, population patch configuration. Test compounds were assessed for their ability to modulate the function of the α7 nicotinic acetylcholine receptor both in the presence, and in the absence of the natural α7 agonist acetylcholine. A HEK cell line stably expressing both human RIC-3 and human α7 (PrecisION hnAChR α7/RIC-3, Eurofins Pharma, St. Charles, MO) was cultured in 175 cm^2 triple-layer tissue culture flasks to no more than 90% confluency in DMEM/F-12 growth media supplemented with 10% heat-inactivated fetal bovine serum, 1% non-essential amino acids, 0.625 μg/mL Puromycin, and 400 μg/mL Geneticin. Immediately prior to assay, cells were detached by first aspirating growth media, rinsing with Dulbecco's phosphate buffered saline, and then adding 10 mL of Accutase (Innovative Cell Technologies, San Diego, CA) to the flask and then incubating at 37° C. for 5 minutes. Detached cells were then recovered by the addition of 40 mL of CHO-serum-free media supplemented with 25 mM HEPES, and rocked gently in a 50 mL conical tube for 20 minutes prior to patch-clamp assay. After recovery, cells were pelleted by centrifugation at 1,000 RPM for 1 minute in a compact bench top centrifuge; recovery media was aspirated and cells were resuspended in external recording solution (150 mM NaCl, 5 mM KCl, 2 mM CaCl2, 1 mM MgCl2, 10 mM HEPES, 12 mM dextrose) to a density of 5.0×10^6 cells/mL. The cell suspension was added to the cell inlet wells on an IonFlux HT population patch plate which had previously been rinsed and primed with deionized H2O. Test compounds were serially diluted in DMSO and then resuspended to the final test concentration in external recording solution, with, or without 40 μM acetylcholine added to the external recording solution; test compounds were then transferred to the IonFlux HT population patch plate. Internal recording solution (110 mM TrisPO4, 28 mM TrisBase, 0.1 mM CaCl2, 2 mM MgCl2, 11 mM EGTA, 4 mM MgATP) was added to the internal recording solution inlet wells on the IonFlux HT patch plate previously loaded with cells and test compounds, and the plate loaded into the IonFlux HT instrument. A protocol was executed on the IonFlux HT to trap the cells, break into the cells, and establish the whole-cell recording configuration; cells were voltage-clamped at a holding potential of −60 mV for the duration of the experiment, all experiments were conducted at room temperature, and the IonFlux HT injection pressure was 8 psi for solution applications. Upon establishing the whole-cell configuration, external recording solution was perfused into the recording chambers for 120 seconds and then 40 μM acetylcholine was applied for 1 second and immediately washed off with external recording solution for 60 seconds. […]

T1 sequence (P36544 23-502): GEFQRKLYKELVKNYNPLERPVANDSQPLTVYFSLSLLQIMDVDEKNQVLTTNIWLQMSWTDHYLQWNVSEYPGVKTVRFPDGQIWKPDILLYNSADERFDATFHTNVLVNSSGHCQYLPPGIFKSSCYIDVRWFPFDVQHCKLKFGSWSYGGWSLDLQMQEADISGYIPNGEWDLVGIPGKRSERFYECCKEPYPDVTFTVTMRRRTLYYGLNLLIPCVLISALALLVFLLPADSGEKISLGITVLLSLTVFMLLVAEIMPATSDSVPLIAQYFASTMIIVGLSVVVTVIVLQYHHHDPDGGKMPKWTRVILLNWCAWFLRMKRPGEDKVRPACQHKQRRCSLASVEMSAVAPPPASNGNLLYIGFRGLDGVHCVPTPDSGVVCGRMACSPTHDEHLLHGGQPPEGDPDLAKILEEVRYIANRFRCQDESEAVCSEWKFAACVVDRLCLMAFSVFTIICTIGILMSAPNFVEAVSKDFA

| SMILES | pEC50 (read-out: α7 nAChR EC50) | pEC50 (read-out: α7 nAChR Potency) |
| --- | --- | --- |
| Cc1cc(OCC2CC23CCN(S(N)(=O)=O)CC3)n(-c2ccccc2)n1 (racemic) [Example A14, 1-{[(3-methyl-1-phenyl-1H-pyrazol-5-yl)oxy]methyl}-6-azaspiro[2.5]octane-6-sulfonamide] | 6.15 | 5.30 to 6.30 |
| NS(=O)(=O)N1CCC2(CC2COc2noc(-c3ccccc3)n2)C(F)(F)C1 (racemic) [Example A22, 4,4-difluoro-1-{[(5-phenyl-1,2,4-oxadiazol-3-yl)oxy]methyl}-6-azaspiro[2.5]octane-6-sulfonamide] | 5.51 | 5.30 to 6.30 |
| NS(=O)(=O)N1CCC2(CC1)CC2COc1cccc(OC(F)F)c1 (racemic) [Example A23, 1-{[3-(difluoromethoxy)phenoxy]methyl}-6-azaspiro[2.5]octane-6-sulfonamide] | 6.82 | 6.30 to 7.00 |
| COc1ccc(F)c(OCC2CC23CCN(S(N)(=O)=O)CC3)c1 (racemic) [Example A26, 1-[(2-fluoro-5-methoxyphenoxy)methyl]-6-azaspiro[2.5]octane-6-sulfonamide] | 6.19 | 5.30 to 6.30 |
| COc1cccc(OCC2CC23CCN(S(N)(=O)=O)CC3)n1 (racemic) [Example A27, 1-{[(6-methoxypyridin-2-yl)oxy]methyl}-6-azaspiro[2.5]octane-6-sulfonamide] | – | 5.30 to 6.30 |
| NS(=O)(=O)N1CCC2(CC1)CC2COc1ccnc(OCC(F)(F)F)c1 (racemic) [Example A32, 1-({[2-(2,2,2-trifluoroethoxy)pyridin-4-yl]oxy}methyl)-6-azaspiro[2.5]octane-6-sulfonamide] | 6.85 | 6.30 to 7.00 |
| NS(=O)(=O)N1CCC2(CC2COc2cccc(OCC(F)(F)F)n2)C(F)(F)C1 (racemic) [Example A39, 4,4-difluoro-1-({[6-(2,2,2-trifluoroethoxy)pyridin-2-yl]oxy}methyl)-6-azaspiro[2.5]octane-6-sulfonamide] | 6.51 | 6.30 to 7.00 |
| COc1ccc(Cl)cc1OCC1CC12CCN(S(N)(=O)=O)CC2 (racemic) [Example A42, 1-[(5-chloro-2-methoxyphenoxy)methyl]-6-azaspiro[2.5]octane-6-sulfonamide] | 6.92 | 6.30 to 7.00 |
| NS(=O)(=O)N1CCC2(CC1)CC2CSc1ccc(C(F)(F)F)cc1 (racemic) [Example A43, 1-({[4-(trifluoromethyl)phenyl]sulfanyl}methyl)-6-azaspiro[2.5]octane-6-sulfonamide] | 5.85 | 5.30 to 6.30 |
| NS(=O)(=O)N1CCC2(CC1)C(COc1ccnc(OC(F)F)c1)C2(F)F (single isomer, unassigned) [Example 2, 2-({[2-(Difluoromethoxy)pyridin-4-yl]oxy}methyl)-1,1-difluoro-6-azaspiro[2.5]octane-6-sulfonamide] | 7.15 | ≥ 7.00 |
| NS(=O)(=O)N1CCC2(CC1)C(COc1ccnc(OC(F)F)c1)C2(F)F (single isomer, unassigned) [Example 3, 2-({[2-(Difluoromethoxy)pyridin-4-yl]oxy}methyl)-1,1-difluoro-6-azaspiro[2.5]octane-6-sulfonamide] | 6.03 | 5.30 to 6.30 |
| NS(=O)(=O)N1CCC2(CC1)C(COc1noc(-c3ccccc3)n1)C2(F)F (single isomer, unassigned) [Example 6, 1,1-Difluoro-2-{[(5-phenyl-1,2,4-oxadiazol-3-yl)oxy]methyl}-6-azaspiro[2.5]octane-6-sulfonamide] | 7.31 | ≥ 7.00 |
| COc1ccc(Cl)cc1OCC1C(F)(F)C12CCN(S(N)(=O)=O)CC2 (single isomer, unassigned) [Example A2, 2-[(5-chloro-2-methoxyphenoxy)methyl]-1,1-difluoro-6-azaspiro[2.5]octane-6-sulfonamide] | 7.60 | ≥ 7.00 |
| COc1ccc(Cl)cc1OCC1C(F)(F)C12CCN(S(N)(=O)=O)CC2 (single isomer, unassigned) [Example A3, 2-[(5-chloro-2-methoxyphenoxy)methyl]-1,1-difluoro-6-azaspiro[2.5]octane-6-sulfonamide] | 5.89 | 5.30 to 6.30 |
